Measured values taken from patent EP2177209A1, “Intravenous solutions and uses” (priority 2008, dated 2010).
Converted amounts (≈) assume the structure as drawn.

Key:
[1] = test system: methicillin-resistant Staphylococcus aureus (MRSA)
[2] = test system: methicillin-susceptible Staphylococcus aureus (MSSA)
[3] = test system: methicillin-resistant Staphylococcus epidermidis (MRSE)
[4] = test system: methicillin-susceptible Staphylococcus epidermidis (MSSE)
[5] = test system: Streptococcus constellatus
Listeria monocytogenes = settings: 20 library strains
Escherichia coli = settings: 50 strains
Pseudomonas aeruginosa = settings: 50 strains
Haemophilus influenzae = settings: 70 strains
Moraxella catarrhalis = settings: 50 strains
Neisseria gonorrhoeae = settings: 20 library strains
Neisseria meningitidis = settings: 20 library strains
Helicobacter pylori = settings: 5 library strains
Bacteroides fragilis = settings: 20 library strains
Clostridium difficile = settings: 10 library strains
Clostridium perfringens = settings: 10 library strains

SMILES: CCCCCCCCCC(=O)N[C@@H](Cc1c[nH]c2ccccc12)C(=O)N[C@H](CC(N)=O)C(=O)N[C@@H](CC(=O)O)C(=O)N[C@@H]1C(=O)NCC(=O)N[C@@H](CCCN)C(=O)N[C@@H](CC(=O)O)C(=O)N[C@H](C)C(=O)N[C@@H](CC(=O)O)C(=O)NCC(=O)N[C@H](CO)C(=O)N[C@@H]([C@H](C)CC(=O)O)C(=O)N[C@@H](CC(=O)c2ccccc2N)C(=O)O[C@@H]1C [Daptomycin, daptomycin]
- MIC 50% [1]: 0.25 µg/mL (≈ 0.154 µM)
- MIC 90% [1]: 0.5 µg/mL (≈ 0.309 µM)
- MIC MAX [1]: 1 µg/mL (≈ 0.617 µM)
- MIC MIN [1]: 0.12 µg/mL (≈ 0.074 µM)
- MIC 50% [2]: 0.25 µg/mL (≈ 0.154 µM)
- MIC 90% [2]: 0.25 µg/mL (≈ 0.154 µM)
- MIC MAX [2]: 0.5 µg/mL (≈ 0.309 µM)
- MIC MIN [2]: 0.06 µg/mL (≈ 0.037 µM)
- MIC 50% [3]: 0.25 µg/mL (≈ 0.154 µM)
- MIC 90% [3]: 0.5 µg/mL (≈ 0.309 µM)
- MIC MAX [3]: 0.5 µg/mL (≈ 0.309 µM)
- MIC MIN [3]: 0.06 µg/mL (≈ 0.037 µM)
- MIC 50% [4]: 0.25 µg/mL (≈ 0.154 µM)
- MIC 90% [4]: 0.5 µg/mL (≈ 0.309 µM)
- MIC MAX [4]: 1 µg/mL (≈ 0.617 µM)
- MIC MIN [4]: 0.06 µg/mL (≈ 0.037 µM)
- MIC 50% (Group A Streptococci): ≤0.03 µg/mL
- MIC 90 (Group A Streptococci): 0.06 µg/mL (≈ 0.037 µM)
- MIC MAX (Group A Streptococci): 0.12 µg/mL (≈ 0.074 µM)
- MIC MIN (Group A Streptococci): ≤0.03 µg/mL
- MIC 50% (Group B Streptococci): 0.5 µg/mL (≈ 0.309 µM)
- MIC 90% (Group B Streptococci): 1 µg/mL (≈ 0.617 µM)
- MIC MAX (Group B Streptococci): 1 µg/mL (≈ 0.617 µM)
- MIC MIN (Group B Streptococci): 0.12 µg/mL (≈ 0.074 µM)
- MIC 50% (Group C Streptococci): 0.12 µg/mL (≈ 0.074 µM)
- MIC 90% (Group C Streptococci): 0.25 µg/mL (≈ 0.154 µM)
- MIC MAX (Group C Streptococci): 0.5 µg/mL (≈ 0.309 µM)
- MIC MIN (Group C Streptococci): ≤0.03 µg/mL
- MIC 50% [5]: 0.5 µg/mL (≈ 0.309 µM)
- MIC 90% [5]: 0.5 µg/mL (≈ 0.309 µM)
- MIC MAX [5]: 0.5 µg/mL (≈ 0.309 µM)
- MIC MIN [5]: 0.12 µg/mL (≈ 0.074 µM)
- MIC 50% (Streptococcus bovis): 0.06 µg/mL (≈ 0.037 µM)
- MIC 90% (Streptococcus bovis): 0.12 µg/mL (≈ 0.074 µM)
- MIC MAX (Streptococcus bovis): 0.12 µg/mL (≈ 0.074 µM)
- MIC MIN (Streptococcus bovis): ≤0.03 µg/mL
- MIC 50% (Streptococcus mitis): 0.5 µg/mL (≈ 0.309 µM)
- MIC 90% (Streptococcus mitis): 1 µg/mL (≈ 0.617 µM)
- MIC MAX (Streptococcus mitis): 1 µg/mL (≈ 0.617 µM)
- MIC MIN (Streptococcus mitis): 0.12 µg/mL (≈ 0.074 µM)
- MIC 50% (Streptococcus sanguis): 0.25 µg/mL (≈ 0.154 µM)
- MIC 90% (Streptococcus sanguis): 0.5 µg/mL (≈ 0.309 µM)
- MIC 90% (Streptococcus oralis): 2 µg/mL (≈ 1.23 µM)
- MIC MAX (Streptococcus oralis): 2 µg/mL (≈ 1.23 µM)
- MIC MIN (Streptococcus oralis): 0.25 µg/mL (≈ 0.154 µM)
- MIC 50% (Streptococcus pneumoniae): 0.12 µg/mL (≈ 0.074 µM)
- MIC 90% (Streptococcus pneumoniae): 0.5 µg/mL (≈ 0.309 µM)
- MIC MAX (Streptococcus pneumoniae): 0.5 µg/mL (≈ 0.309 µM)
- MIC MIN (Streptococcus pneumoniae): ≤0.03 µg/mL
- MIC 50% (Listeria monocytogenes): 1 µg/mL (≈ 0.617 µM)
- MIC 90% (Listeria monocytogenes): 2 µg/mL (≈ 1.23 µM)
- MIC MAX (Listeria monocytogenes): ≥128 µg/mL
- MIC MIN (Listeria monocytogenes): 0.015 µg/mL (≈ 0.00926 µM)
- MIC 50% (Escherichia coli): ≥128 µg/mL
- MIC 90% (Escherichia coli): ≥128 µg/mL
- MIC MAX (Escherichia coli): ≥128 µg/mL
- MIC MIN (Escherichia coli): ≥128 µg/mL
- MIC 50% (Pseudomonas aeruginosa): ≥128 µg/mL
- MIC 90% (Pseudomonas aeruginosa): ≥128 µg/mL
- MIC MAX (Pseudomonas aeruginosa): ≥128 µg/mL
- MIC MIN (Pseudomonas aeruginosa): ≥128 µg/mL
- MIC 50% (Haemophilus influenzae): ≥128 µg/mL
- MIC 90% (Haemophilus influenzae): ≥128 µg/mL
- MIC MAX (Haemophilus influenzae): ≥128 µg/mL
- MIC MIN (Haemophilus influenzae): ≥128 µg/mL
- MIC 50% (Moraxella catarrhalis): 8 µg/mL (≈ 4.94 µM)
- MIC 90% (Moraxella catarrhalis): 16 µg/mL (≈ 9.87 µM)
- MIC MAX (Moraxella catarrhalis): ≥128 µg/mL
- MIC MIN (Moraxella catarrhalis): 2 µg/mL (≈ 1.23 µM)
- MIC 50% (Neisseria gonorrhoeae): ≥128 µg/mL
- MIC 90% (Neisseria gonorrhoeae): ≥128 µg/mL
- MIC MIN (Neisseria gonorrhoeae): 64 µg/mL (≈ 39.5 µM)
- MIC 50% (Neisseria meningitidis): 64 µg/mL (≈ 39.5 µM)
- MIC MAX (Neisseria meningitidis): ≥128 µg/mL
- MIC MIN (Neisseria meningitidis): 8 µg/mL (≈ 4.94 µM)
- MIC 50% (Helicobacter pylori): ≥128 µg/mL
- MIC 90% (Helicobacter pylori): ≥128 µg/mL
- MIC MAX (Helicobacter pylori): ≥128 µg/mL
- MIC MIN (Helicobacter pylori): ≥128 µg/mL
- MIC 50% (Bacteroides fragilis): ≥128 µg/mL
- MIC 90% (Bacteroides fragilis): ≥128 µg/mL
- MIC MAX (Bacteroides fragilis): ≥128 µg/mL
- MIC MIN (Bacteroides fragilis): ≥128 µg/mL
- MIC 50% (Clostridium difficile): 0.25 µg/mL (≈ 0.154 µM)
- MIC 90% (Clostridium difficile): 2 µg/mL (≈ 1.23 µM)
- MIC MAX (Clostridium difficile): 2 µg/mL (≈ 1.23 µM)
- MIC MIN (Clostridium difficile): 0.12 µg/mL (≈ 0.074 µM)
- MIC 50% (Clostridium perfringens): 1 µg/mL (≈ 0.617 µM)
